Results: US9475775B2, “Benzazepine dicarboxamide compounds” (Hoffmann-La Roche Inc., priority 2015, dated 2016)

Key:
human TLR7 = human TLR7 (Homo sapiens (Human), UniProt Q9NYK1); experiment: HEK-Blue human TLR7 cells, NF-κB SEAP reporter assay; format: cell-based; settings: stimulation for 20 hours
Outline: (§1)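 HEK-Blue cells carrying human TLR7 or TLR8 with an NF-κB/AP-1-driven SEAP reporter, stimulated 20 hours. Supernatant SEAP measured with Quanti Blue at 640 nm; EC50 derived from concentration-response.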

human TLR8 = human TLR8 (Homo sapiens (Human), UniProt Q9NR97); experiment: HEK-Blue human TLR8 cells, NF-κB SEAP reporter assay; format: cell-based; settings: stimulation for 20 hours
Outline: as §1

Sequence of human TLR7 (Q9NYK1 27-1049): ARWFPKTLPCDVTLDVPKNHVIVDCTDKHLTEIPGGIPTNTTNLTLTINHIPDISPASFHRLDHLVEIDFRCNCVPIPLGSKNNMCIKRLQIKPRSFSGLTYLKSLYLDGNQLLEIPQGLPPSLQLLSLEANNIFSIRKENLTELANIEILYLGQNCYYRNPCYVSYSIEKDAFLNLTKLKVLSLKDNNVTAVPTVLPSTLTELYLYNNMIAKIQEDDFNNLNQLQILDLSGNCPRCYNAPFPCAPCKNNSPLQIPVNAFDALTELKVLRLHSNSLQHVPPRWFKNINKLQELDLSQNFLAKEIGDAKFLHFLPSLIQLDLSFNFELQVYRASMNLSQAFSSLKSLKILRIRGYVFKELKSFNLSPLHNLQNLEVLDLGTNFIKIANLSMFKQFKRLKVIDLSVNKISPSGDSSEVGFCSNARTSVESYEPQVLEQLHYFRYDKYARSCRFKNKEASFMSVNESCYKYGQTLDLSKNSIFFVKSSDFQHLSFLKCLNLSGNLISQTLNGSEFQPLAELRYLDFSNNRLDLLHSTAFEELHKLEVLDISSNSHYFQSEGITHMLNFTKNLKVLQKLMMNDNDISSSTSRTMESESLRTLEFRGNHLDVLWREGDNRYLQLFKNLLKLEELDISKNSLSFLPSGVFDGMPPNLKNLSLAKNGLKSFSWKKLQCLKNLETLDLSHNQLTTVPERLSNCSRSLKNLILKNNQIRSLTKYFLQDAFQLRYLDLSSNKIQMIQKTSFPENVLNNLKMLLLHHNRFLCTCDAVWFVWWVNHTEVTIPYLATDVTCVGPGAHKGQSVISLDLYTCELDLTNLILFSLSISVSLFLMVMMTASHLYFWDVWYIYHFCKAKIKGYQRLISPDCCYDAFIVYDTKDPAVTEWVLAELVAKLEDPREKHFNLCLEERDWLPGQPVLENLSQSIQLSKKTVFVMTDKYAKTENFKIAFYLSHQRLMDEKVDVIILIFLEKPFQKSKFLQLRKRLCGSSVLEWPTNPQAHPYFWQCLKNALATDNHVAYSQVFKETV
Sequence of human TLR8 (Q9NR97 27-1041): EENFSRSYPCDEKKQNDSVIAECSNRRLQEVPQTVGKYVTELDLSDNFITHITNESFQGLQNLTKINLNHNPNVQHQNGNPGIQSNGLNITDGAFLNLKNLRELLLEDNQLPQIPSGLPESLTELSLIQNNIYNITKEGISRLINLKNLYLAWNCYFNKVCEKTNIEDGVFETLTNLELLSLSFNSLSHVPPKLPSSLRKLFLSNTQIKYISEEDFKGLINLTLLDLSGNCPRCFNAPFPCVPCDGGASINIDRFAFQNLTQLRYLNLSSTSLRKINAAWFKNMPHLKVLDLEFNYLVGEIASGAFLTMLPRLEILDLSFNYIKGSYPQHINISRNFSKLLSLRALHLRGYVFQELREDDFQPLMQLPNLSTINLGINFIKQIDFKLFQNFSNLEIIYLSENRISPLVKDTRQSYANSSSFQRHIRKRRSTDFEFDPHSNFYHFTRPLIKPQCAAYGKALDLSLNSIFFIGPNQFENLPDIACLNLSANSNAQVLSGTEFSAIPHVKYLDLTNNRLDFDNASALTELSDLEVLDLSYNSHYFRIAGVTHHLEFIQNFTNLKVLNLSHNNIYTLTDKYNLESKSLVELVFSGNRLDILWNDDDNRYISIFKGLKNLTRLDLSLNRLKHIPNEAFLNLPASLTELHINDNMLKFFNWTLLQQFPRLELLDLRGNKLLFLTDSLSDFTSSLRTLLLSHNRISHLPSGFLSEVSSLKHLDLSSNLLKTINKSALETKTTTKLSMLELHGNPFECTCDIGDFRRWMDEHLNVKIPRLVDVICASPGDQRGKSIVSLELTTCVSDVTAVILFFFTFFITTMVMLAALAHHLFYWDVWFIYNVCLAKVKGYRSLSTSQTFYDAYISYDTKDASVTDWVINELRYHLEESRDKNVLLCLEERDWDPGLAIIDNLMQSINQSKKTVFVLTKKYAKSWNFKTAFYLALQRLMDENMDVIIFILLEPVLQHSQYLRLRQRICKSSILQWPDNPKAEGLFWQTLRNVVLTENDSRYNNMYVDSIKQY

Structure (SMILES) | EC50 (human TLR7) | EC50 (human TLR8)
CCCN(CCC)C(=O)C1=Cc2ccc(C(=O)Nc3ccc(CCCN)nc3)cc2N=C(N)C1 [Example 75, 2-Amino-N8-[6-(3-aminopropyl)-3-pyridyl]-N4,N4-dipropyl-3H-1-benzazepine-4,8-dicarboxamide] | > 100000 nM | 10 nM
CCCN(CCC)C(=O)C1=Cc2ccc(C(=O)Nc3cncc(CCCCN)c3)cc2N=C(N)C1 [Example 76, 2-Amino-N8-[5-(4-aminobutyl)-3-pyridyl]-N4,N4-dipropyl-3H-1-benzazepine-4,8-dicarboxamide] | > 100000 nM | 24 nM
CCCN(CCC)C(=O)C1=Cc2ccc(C(=O)Nc3ccc(CCCCN)nc3)cc2N=C(N)C1 [Example 77, 2-Amino-N8-[6-(4-aminobutyl)-3-pyridyl]-N4,N4-dipropyl-3H-1-benzazepine-4,8-dicarboxamide] | > 100000 nM | 8 nM
CCCN(CCC)C(=O)C1=Cc2ccc(C(=O)Nc3cncc(CN(C)C)c3)cc2N=C(N)C1 [Example 78, 2-Amino-N8-[5-[(dimethylamino)methyl]-3-pyridyl]-N4,N4-dipropyl-3H-1-benzazepine-4,8-dicarboxamide] | > 100000 nM | 12 nM
CCCN(CC1CC1)C(=O)C1=Cc2ccc(C(=O)Nc3cncc(OCC)c3)cc2N=C(N)C1 [Example 79, 2-Amino-N4-(cyclopropylmethyl)-N8-(5-ethoxy-3-pyridyl)-N4-propyl-3H-1-benzazepine-4,8-dicarboxamide] | 31000 nM | 2 nM
CCCN(CCC)C(=O)C1=Cc2ccc(C(=O)Nc3cncc(CCN)c3)cc2N=C(N)C1 [Example 80, 2-Amino-N8-[5-(2-aminoethyl)-3-pyridyl]-N4,N4-dipropyl-3H-1-benzazepine-4,8-dicarboxamide] | > 100000 nM | 17 nM
